# Results taken from patent US7511074B2, “Tetrafluorobenzyl derivatives and pharmaceutical composition for preventing and treating acute and chronic neurodegenerative diseases in central nervous system containing the same” (AmKor Pharma, Inc., priority 2002, dated 2009).
# Legend:
# [1] = tested on: Mouse cortical cell cultures; assay: Zinc neurotoxicity in mixed cortical cell cultures (LDH assay); format: cell-based; settings: 100 μM ZnCl2 for 30 min, concurrent treatment; LDH 24 hr later
# Experimental: Mouse cortical cell cultures (DIV 12-14) were exposed to […] for 30 min, alone or with inclusion of 3-300 μM 2-Hydroxy-TTBA. Neuronal death was analyzed 24 hr later by measuring levels of LDH released into the bathing medium, mean ±SEM (n=9-12 culture wells per condition), scaled to mean LDH efflux value 24 hr after sham wash (=0) and continuous exposure to 500 μM NMDA (=100).
# For mixed neuron-glia culture, mouse cerebral cortices were removed from brains of the 14-16 day-old-fetal mice (E14-16), gently triturated and plated on 24 well plates (2×10^5 cells/plate) precoated with 100 μg/ml poly-D-lysine and 4 μg/ml laminine. Cultures were maintained at 37° C. in a humidified 5% CO2 atmosphere. […]
# After 7-8 days in vitro (DIV 7-8), 10 μM cytosine arabinofuranoside (Ara-C) was included to halt overgrowth of glia. […] Overall neuronal cell injury was assessed by measuring amount of lactate dehydrogenase (LDH) released into the bathing medium 24 hr after neurotoxic insults as previously described [Koh and Choi, J Neurosci Methods 20:83-90, 1987].
# To induce zinc (Zn^2+) neurotoxicity, mixed cortical cell cultures were exposed to 100 μM ZnCl2 for 30 min in a HEPES-buffered control salt solution (HCSS): (in mM) 120 NaCl, 5 KCl, 1.6 MgCl2, 2.3 CaCl2, 15 glucose, 20 HEPES and 10 NaOH, alone or with 3-300 uM 2-Hydroxy-TTBA. […] Neuronal cell death was analyzed 24 hr later by LDH assay. […]
# [2] = tested on: Mouse cortical cell cultures; assay: SNP (sodium nitroprusside) cytotoxicity in mixed cortical cell cultures (LDH assay); format: cell-based; settings: continuous 5 μM SNP; LDH 24 hr later
# Experimental: Mouse cortical cell cultures (DIV 12-14) were exposed to continuously 5 μM sodium nitroprusside (SNP), alone (●) or with inclusion of 0.1-10 mM aspirin (◯), 1-100 μM trolox (▾), or 0.1-10 μM 2-Hydroxy-TTBA (∇). Neuronal death was analyzed 24 hr later by measuring levels of LDH released into the bathing medium, mean ±SEM (n=9-12 culture wells per condition), scaled to mean LDH efflux value 24 hr after sham wash (=0) and continuous exposure to 500 μM NMDA (=100). *, Significant difference from the vehicle control, p<0.05 using ANOVA and Student-Neuman-Keuls' test.
# For mixed neuron-glia culture, mouse cerebral cortices were removed from brains of the 14-16 day-old-fetal mice (E14-16), gently triturated and plated on 24 well plates (2×10^5 cells/plate) precoated with 100 μg/ml poly-D-lysine and 4 μg/ml laminine. Cultures were maintained at 37° C. in a humidified 5% CO2 atmosphere. Plating media consist of Eagles minimal essential media (MEM, Earles salts, supplied glutamine-free) supplemented with 5% horse serum, 5% fetal bovine serum, 26.5 mM bicarbonate, 2 mM glutamine, and 21 mM glucose.
# After 7-8 days in vitro (DIV 7-8), 10 μM cytosine arabinofuranoside (Ara-C) was included to halt overgrowth of glia. The drug treatment was carried on DIV 12-15 cortical cell culture. Overall neuronal cell injury was assessed by measuring amount of lactate dehydrogenase (LDH) released into the bathing medium 24 hr after neurotoxic insults as previously described [Koh and Choi, J Neurosci Methods 20:83-90, 1987].
# Mixed cortical cell cultures were continuously exposed to 5 μM SNP, a nitric oxide (NO) donor, alone or with inclusion of 0.1-10 μM 2-Hydroxy-TTBA, 1-10 μM trolox or 100-10,000 μM aspirin. Neuronal cell death was analyzed 24 hr later by LDH assay. *, Significant difference from the vehicle control (SNP), p<0.05 using ANOVA and Student-Neuman-Keuls' test.
# [3] = tested on: Sprague-dawley rats, four-vessel occlusion; assay: CA1 neuronal cell death after transient forebrain ischemia; format: in vivo, rat; settings: 50 mg/kg ip; 10 min four-vessel occlusion; analyzed 3 d later
# Experimental: Adult rats received transient global ischemia for 10 min, with intraperitoneal injections of vehicle (control) or 2-Hydroxy-TTBA (50 mg/kg) at 5 min after reperfusion. The number of degenerating neurons in the CA1 was analyzed 3 d later by counting viable neurons after staining with cresyl violet, mean ±S.E.M. *, Significant difference from the vehicle control, p<0.05 using the independent t-test.
# Male adult Sprague-dawley rats (250-300 g) were anesthetized with chloral hydrate and subjected to four-vessel occlusion model (occlusion of both common carotid arteries and vertebral arteries) as previously described [Pulsinelli and Brierley, stroke 10: 267-272 (1979)].
# Rats received four-vessel occlusion for 10 min followed by administration of saline (control) or 2-Hydroxy-TTBA (50 mg/kg, ip). Animals were euthanized 3 d later and processed for analysis of neuronal death in the CA1 field after staining with hematoxylin and eosin(mean ±SEM, N=12 rats/condition).
compound,measurement,setting,value
"O=C(O)c1cc(NCc2c(F)c(F)c(C(F)(F)F)c(F)c2F)ccc1O [2-Hydroxy-TTBA, 2-hydroxy-5-(2,3,5,6-tetrafluoro-4-trifluoromethylbenzylamino)benzoic acid]",doses at which zinc-induced neuronal death was prevented,[1],10 to 300 µM
same,effect on SNP toxicity,[2],completely blocked
same,strength relative to trolox in preventing NO toxicity,[2],100 fold
same,delayed neuronal cell death in the CA1 areas,[3],prevented delayed neuronal cell death
